{"source": "patent EP1798220A1", "about": "“Dibenzene derivatives as calcium channel blockers” (Neuropharma S.A., priority 2005, dated 2007)", "system": "VDCC", "assay": "VDCC inhibition: calcium entry (Fluo-4 fluorescence) in SH-SY5Y cells after depolarization with 60 mM KCl", "type": "cell-based, human", "details": "10 min exposure, 60 mM KCl depolarization", "method": "This assay is aimed to determine the VDCC blocker activity of compounds; it is performed using SH-SY5Y neuroblastoma cells. SH-SY5Y cells were plated at 5x10^5 cells per well into Black / Clear Bottom 96-well culture plate, 48 hours before treatment. Cells were loaded with Fluo-4, 5 µM and pluronic acid, 0.1%, for 30 min at 37°C, 5%CO2, following a incubation of 15 min at RT in Krebs-HEPES solution. Immediately cells are exposed to the samples at different concentrations for 10 min. The compounds were tested at […], depending on potency. After the treatment, calcium entry is measured as fluorescence in a Fluostar Optima plate reader (BMG) in response to depolarization with 60 mM KCl. The excitation wavelength was 485 nm, and that of emission 520 nm."}
{"smiles": "COCOc1cc(OC)ccc1C(=O)NCCCOc1c(Br)cc(CCNC(=O)c2ccc(OC)cc2OCOC)cc1Br", "note": "[Compound 4]", "values": [{"measurement": "% of calcium entry inhibition", "setting": "compound at 10^-5 (M)", "result": "87.3 ± 5", "unit": "%"}, {"measurement": "% of calcium entry inhibition", "setting": "compound at 10^-6 (M)", "result": "27.3 ± 5", "unit": "%"}, {"measurement": "% of calcium entry inhibition", "setting": "compound at 10^-7 (M)", "result": "6 ± 0", "unit": "%"}]}
{"smiles": "COCOc1cc(OC)ccc1C(=O)NCCCCCCNC(=O)c1ccc(OC)cc1OCOC", "note": "[Compound 3]", "values": [{"measurement": "% of calcium entry inhibition", "setting": "compound at 10^-5 (M)", "result": "37.5 ± 7", "unit": "%"}, {"measurement": "% of calcium entry inhibition", "setting": "compound at 10^-6 (M)", "result": "6,6 ± 2%"}]}
{"smiles": "COc1cc(O)c(C(=O)NCCCCCNC(=O)c2cc(Br)c(OC)cc2O)cc1Br", "note": "[Compound 5]", "values": [{"measurement": "% of calcium entry inhibition", "setting": "compound at 10^-5 (M)", "result": "21.8 ± 5", "unit": "%"}]}
